What follows are molecules tested against Acetylcholinesterase (Homo sapiens, UniProt P22303) (assay: DRUGMATRIX: Acetylcholinesterase enzyme inhibition (substrate: acetylthiocholine)). Conditions: hek293; Not Active = under 50% inhibition at 10 µM.
Type: cell-based, HEK293
Throughout, for Ki: in other assays of this panel Not Active means under 50% inhibition at 10 µM.

Acetylcholinesterase, sequence (P22303 whole entry): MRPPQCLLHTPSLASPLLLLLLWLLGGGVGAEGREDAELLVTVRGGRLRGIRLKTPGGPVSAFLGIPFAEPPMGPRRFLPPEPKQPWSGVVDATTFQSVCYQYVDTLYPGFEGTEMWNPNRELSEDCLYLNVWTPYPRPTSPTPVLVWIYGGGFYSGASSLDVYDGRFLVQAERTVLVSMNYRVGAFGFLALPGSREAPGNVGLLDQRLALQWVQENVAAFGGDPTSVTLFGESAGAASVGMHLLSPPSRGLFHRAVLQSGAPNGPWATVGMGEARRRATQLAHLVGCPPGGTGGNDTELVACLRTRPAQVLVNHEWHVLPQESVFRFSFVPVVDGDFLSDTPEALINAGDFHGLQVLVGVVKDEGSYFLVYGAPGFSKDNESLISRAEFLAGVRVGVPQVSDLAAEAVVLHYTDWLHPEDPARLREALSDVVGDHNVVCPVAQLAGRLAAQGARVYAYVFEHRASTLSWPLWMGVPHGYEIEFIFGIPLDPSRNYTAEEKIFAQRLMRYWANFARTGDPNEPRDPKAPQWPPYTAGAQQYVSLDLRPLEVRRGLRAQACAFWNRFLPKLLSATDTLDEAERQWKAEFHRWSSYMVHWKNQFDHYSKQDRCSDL

Compound | IC50
Nc1nc(=O)[nH]cc1F [FLUCYTOSINE] | Not Active
O=C1OC2(c3ccc(O)cc3Oc3cc(O)ccc32)c2ccccc21 [FLUORESCEIN] | Not Active
Cn1cnc([N+](=O)[O-])c1Sc1ncnc2nc[nH]c12 [AZATHIOPRINE] | Not Active
CNCCC=C1c2ccccc2CCc2ccccc21 [NORTRIPTYLINE] | Not Active
C=C(C)[C@@H]1[C@H]2OC(=O)[C@@H]1[C@]1(O)C[C@H]3O[C@]34C(=O)O[C@H]2[C@]14C [PICROTOXININ] | Not Active
CC1COc2c(N3CCN(C)CC3)c(F)cc3c(=O)c(C(=O)O)cn1c23 (stereo not drawn) [OFLOXACIN] | Not Active

These molecules were tested against Carbonic anhydrase 2 (Homo sapiens, UniProt P00918) (assay: DRUGMATRIX: Carbonic Anhydrase II enzyme inhibition (substrate: 4-Nitrophenyl acetate (4-NPA))). Conditions: erythrocyte; Not Active = under 50% inhibition at 10 µM.
Type: tissue-based, Erythrocyte

Compound | IC50
Nc1nc(=O)[nH]cc1F [FLUCYTOSINE] | Not Active
O=C1OC2(c3ccc(O)cc3Oc3cc(O)ccc32)c2ccccc21 [FLUORESCEIN] | Not Active
Cn1cnc([N+](=O)[O-])c1Sc1ncnc2nc[nH]c12 [AZATHIOPRINE] | Not Active
CNCCC=C1c2ccccc2CCc2ccccc21 [NORTRIPTYLINE] | Not Active
C=C(C)[C@@H]1[C@H]2OC(=O)[C@@H]1[C@]1(O)C[C@H]3O[C@]34C(=O)O[C@H]2[C@]14C [PICROTOXININ] | Not Active
CC1COc2c(N3CCN(C)CC3)c(F)cc3c(=O)c(C(=O)O)cn1c23 (stereo not drawn) [OFLOXACIN] | Not Active

Each molecule was assayed against Vasopressin V1a receptor (Homo sapiens, UniProt P37288) (assay: not given). Conditions: hek293.
Type: cell membranes, Membrane

Vasopressin V1a receptor, sequence (P37288 whole entry): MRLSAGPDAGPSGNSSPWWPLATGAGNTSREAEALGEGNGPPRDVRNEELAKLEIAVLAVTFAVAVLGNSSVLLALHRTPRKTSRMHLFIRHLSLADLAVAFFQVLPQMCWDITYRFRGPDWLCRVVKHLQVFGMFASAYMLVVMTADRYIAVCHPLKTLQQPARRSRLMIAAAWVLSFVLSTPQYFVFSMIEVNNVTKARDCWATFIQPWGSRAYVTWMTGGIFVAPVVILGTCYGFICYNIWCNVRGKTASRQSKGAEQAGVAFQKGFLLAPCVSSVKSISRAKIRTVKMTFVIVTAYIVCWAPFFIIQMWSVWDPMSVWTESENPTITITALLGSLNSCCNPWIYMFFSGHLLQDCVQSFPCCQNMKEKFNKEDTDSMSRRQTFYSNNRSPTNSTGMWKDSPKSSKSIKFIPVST

Compound | IC50
Nc1nc(=O)[nH]cc1F [FLUCYTOSINE] | Not Active
O=C1OC2(c3ccc(O)cc3Oc3cc(O)ccc32)c2ccccc21 [FLUORESCEIN] | Not Active
Cn1cnc([N+](=O)[O-])c1Sc1ncnc2nc[nH]c12 [AZATHIOPRINE] | Not Active
CNCCC=C1c2ccccc2CCc2ccccc21 [NORTRIPTYLINE] | Not Active
C=C(C)[C@@H]1[C@H]2OC(=O)[C@@H]1[C@]1(O)C[C@H]3O[C@]34C(=O)O[C@H]2[C@]14C [PICROTOXININ] | Not Active
CC1COc2c(N3CCN(C)CC3)c(F)cc3c(=O)c(C(=O)O)cn1c23 (stereo not drawn) [OFLOXACIN] | Not Active

What follows are molecules tested against Voltage-gated inwardly rectifying potassium channel KCNH2 (Homo sapiens, UniProt Q12809) (assay: not given). Conditions: hek293.
Voltage-gated inwardly rectifying potassium channel KCNH2, sequence (Q12809 whole entry): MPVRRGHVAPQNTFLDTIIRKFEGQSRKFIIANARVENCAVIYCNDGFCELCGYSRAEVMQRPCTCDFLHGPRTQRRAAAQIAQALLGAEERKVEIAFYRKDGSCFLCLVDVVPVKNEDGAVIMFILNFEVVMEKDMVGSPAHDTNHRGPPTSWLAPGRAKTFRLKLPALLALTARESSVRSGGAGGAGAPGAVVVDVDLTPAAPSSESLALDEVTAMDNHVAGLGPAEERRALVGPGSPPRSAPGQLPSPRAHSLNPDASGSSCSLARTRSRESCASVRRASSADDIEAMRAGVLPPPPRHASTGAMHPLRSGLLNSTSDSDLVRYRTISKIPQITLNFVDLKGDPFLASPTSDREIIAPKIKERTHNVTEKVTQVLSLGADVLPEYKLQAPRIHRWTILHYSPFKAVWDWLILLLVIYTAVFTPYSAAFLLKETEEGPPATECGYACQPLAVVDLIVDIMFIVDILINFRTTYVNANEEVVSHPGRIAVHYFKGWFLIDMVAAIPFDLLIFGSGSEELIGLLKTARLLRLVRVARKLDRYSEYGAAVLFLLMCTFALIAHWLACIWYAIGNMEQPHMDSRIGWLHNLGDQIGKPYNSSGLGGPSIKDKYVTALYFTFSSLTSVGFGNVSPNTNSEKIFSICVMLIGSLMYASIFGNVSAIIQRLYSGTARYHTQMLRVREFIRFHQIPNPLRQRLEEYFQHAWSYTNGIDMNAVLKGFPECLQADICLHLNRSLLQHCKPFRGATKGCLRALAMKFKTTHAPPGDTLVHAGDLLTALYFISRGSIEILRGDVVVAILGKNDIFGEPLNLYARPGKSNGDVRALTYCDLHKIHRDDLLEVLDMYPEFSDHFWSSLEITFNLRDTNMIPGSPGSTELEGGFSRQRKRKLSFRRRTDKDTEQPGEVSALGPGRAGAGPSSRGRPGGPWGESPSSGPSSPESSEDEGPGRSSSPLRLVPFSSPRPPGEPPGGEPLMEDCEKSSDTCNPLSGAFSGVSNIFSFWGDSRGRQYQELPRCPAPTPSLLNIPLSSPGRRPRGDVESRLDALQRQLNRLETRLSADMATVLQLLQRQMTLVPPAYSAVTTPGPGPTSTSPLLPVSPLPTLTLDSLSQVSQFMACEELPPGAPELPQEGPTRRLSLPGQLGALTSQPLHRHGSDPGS

Compound | IC50 | Ki
Nc1nc(=O)[nH]cc1F [FLUCYTOSINE] | Not Active | Not Active
O=C1OC2(c3ccc(O)cc3Oc3cc(O)ccc32)c2ccccc21 [FLUORESCEIN] | Not Active | Not Active
Cn1cnc([N+](=O)[O-])c1Sc1ncnc2nc[nH]c12 [AZATHIOPRINE] | Not Active | Not Active
CNCCC=C1c2ccccc2CCc2ccccc21 [NORTRIPTYLINE] | Not Active | Not Active
C=C(C)[C@@H]1[C@H]2OC(=O)[C@@H]1[C@]1(O)C[C@H]3O[C@]34C(=O)O[C@H]2[C@]14C [PICROTOXININ] | Not Active | Not Active
CC1COc2c(N3CCN(C)CC3)c(F)cc3c(=O)c(C(=O)O)cn1c23 (stereo not drawn) [OFLOXACIN] | Not Active | Not Active

Each molecule was assayed against T1, Cytochrome P450 2A6 (Homo sapiens, UniProt P11509) (assay: not given). Conditions: bti-tn-5b1-4.
T1 sequence (P11509 whole entry): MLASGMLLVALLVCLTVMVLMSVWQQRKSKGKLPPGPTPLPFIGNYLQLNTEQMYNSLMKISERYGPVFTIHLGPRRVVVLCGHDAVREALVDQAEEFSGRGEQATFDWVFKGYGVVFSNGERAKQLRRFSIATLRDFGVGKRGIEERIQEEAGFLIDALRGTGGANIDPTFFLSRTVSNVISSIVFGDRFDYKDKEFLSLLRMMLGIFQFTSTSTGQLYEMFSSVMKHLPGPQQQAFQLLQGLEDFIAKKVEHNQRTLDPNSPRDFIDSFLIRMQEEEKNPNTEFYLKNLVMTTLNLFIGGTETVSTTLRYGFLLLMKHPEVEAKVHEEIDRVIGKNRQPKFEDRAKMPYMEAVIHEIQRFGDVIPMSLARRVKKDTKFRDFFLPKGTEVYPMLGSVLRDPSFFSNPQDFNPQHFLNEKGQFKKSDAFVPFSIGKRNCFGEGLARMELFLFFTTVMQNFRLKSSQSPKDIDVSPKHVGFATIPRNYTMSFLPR

Compound | IC50 | Ki
Nc1nc(=O)[nH]cc1F [FLUCYTOSINE] | Not Active | Not Active
O=C1OC2(c3ccc(O)cc3Oc3cc(O)ccc32)c2ccccc21 [FLUORESCEIN] | Not Active | Not Active
Cn1cnc([N+](=O)[O-])c1Sc1ncnc2nc[nH]c12 [AZATHIOPRINE] | Not Active | Not Active
CNCCC=C1c2ccccc2CCc2ccccc21 [NORTRIPTYLINE] | Not Active | Not Active
C=C(C)[C@@H]1[C@H]2OC(=O)[C@@H]1[C@]1(O)C[C@H]3O[C@]34C(=O)O[C@H]2[C@]14C [PICROTOXININ] | Not Active | Not Active
CC1COc2c(N3CCN(C)CC3)c(F)cc3c(=O)c(C(=O)O)cn1c23 (stereo not drawn) [OFLOXACIN] | Not Active | Not Active

These molecules were tested against T2, Thromboxane-A synthase (Homo sapiens, UniProt P24557) (assay: biochemical). Conditions: platelet.
T2 sequence (P24557 whole entry): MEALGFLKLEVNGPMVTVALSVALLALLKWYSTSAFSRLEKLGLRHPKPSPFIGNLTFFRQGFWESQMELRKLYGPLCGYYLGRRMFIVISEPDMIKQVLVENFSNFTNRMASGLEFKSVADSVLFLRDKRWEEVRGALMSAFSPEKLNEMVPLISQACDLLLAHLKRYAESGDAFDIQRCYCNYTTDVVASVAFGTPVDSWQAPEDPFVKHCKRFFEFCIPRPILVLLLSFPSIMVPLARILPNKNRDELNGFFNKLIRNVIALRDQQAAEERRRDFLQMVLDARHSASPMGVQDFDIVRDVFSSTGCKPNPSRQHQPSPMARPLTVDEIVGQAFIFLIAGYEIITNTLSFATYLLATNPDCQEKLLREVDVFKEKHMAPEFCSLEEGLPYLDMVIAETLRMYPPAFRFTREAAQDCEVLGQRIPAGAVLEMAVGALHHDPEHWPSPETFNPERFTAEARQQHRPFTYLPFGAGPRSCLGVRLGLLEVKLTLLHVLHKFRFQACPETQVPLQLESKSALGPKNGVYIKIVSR
Type: tissue-based, Platelet

Compound | IC50
Nc1nc(=O)[nH]cc1F [FLUCYTOSINE] | Not Active
O=C1OC2(c3ccc(O)cc3Oc3cc(O)ccc32)c2ccccc21 [FLUORESCEIN] | Not Active
Cn1cnc([N+](=O)[O-])c1Sc1ncnc2nc[nH]c12 [AZATHIOPRINE] | Not Active
CNCCC=C1c2ccccc2CCc2ccccc21 [NORTRIPTYLINE] | Not Active
C=C(C)[C@@H]1[C@H]2OC(=O)[C@@H]1[C@]1(O)C[C@H]3O[C@]34C(=O)O[C@H]2[C@]14C [PICROTOXININ] | Not Active
CC1COc2c(N3CCN(C)CC3)c(F)cc3c(=O)c(C(=O)O)cn1c23 (stereo not drawn) [OFLOXACIN] | Not Active

The molecules below were run against Cytochrome P450 2C19 (Homo sapiens, UniProt P33261) (assay: not given). Conditions: bti-tn-5b1-4.
Cytochrome P450 2C19, sequence (P33261 whole entry): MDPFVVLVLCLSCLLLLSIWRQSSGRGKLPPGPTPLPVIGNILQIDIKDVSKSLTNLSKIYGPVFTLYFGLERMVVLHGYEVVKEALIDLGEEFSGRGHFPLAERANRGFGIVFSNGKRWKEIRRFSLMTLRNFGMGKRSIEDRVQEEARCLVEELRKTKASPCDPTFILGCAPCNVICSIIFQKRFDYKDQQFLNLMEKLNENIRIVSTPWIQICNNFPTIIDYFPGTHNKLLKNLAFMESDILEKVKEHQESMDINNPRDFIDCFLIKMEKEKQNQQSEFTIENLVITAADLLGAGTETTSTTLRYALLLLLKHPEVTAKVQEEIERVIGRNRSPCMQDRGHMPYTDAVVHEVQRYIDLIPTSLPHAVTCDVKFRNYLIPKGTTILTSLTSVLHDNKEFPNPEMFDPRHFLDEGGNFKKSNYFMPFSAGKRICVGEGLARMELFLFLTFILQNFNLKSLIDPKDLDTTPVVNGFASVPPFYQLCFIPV

Compound | IC50 | Ki
CC1COc2c(N3CCN(C)CC3)c(F)cc3c(=O)c(C(=O)O)cn1c23 (stereo not drawn) [OFLOXACIN] | Not Active | Not Active

Each molecule was assayed against T3, Neuropeptide Y receptor type 2 (Homo sapiens, UniProt P49146) (assay: not given). Conditions: kan-ts.
T3 sequence (P49146 whole entry): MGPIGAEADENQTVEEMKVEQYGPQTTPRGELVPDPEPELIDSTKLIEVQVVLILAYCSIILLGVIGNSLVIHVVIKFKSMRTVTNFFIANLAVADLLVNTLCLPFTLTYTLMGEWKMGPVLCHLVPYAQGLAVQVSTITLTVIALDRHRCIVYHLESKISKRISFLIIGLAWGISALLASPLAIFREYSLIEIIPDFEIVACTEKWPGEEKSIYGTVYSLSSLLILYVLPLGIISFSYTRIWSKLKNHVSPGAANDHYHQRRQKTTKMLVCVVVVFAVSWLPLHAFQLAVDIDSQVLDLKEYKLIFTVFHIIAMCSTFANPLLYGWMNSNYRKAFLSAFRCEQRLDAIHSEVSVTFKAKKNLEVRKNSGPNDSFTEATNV
Type: cell membranes, Membrane

Compound | IC50
Nc1nc(=O)[nH]cc1F [FLUCYTOSINE] | Not Active
O=C1OC2(c3ccc(O)cc3Oc3cc(O)ccc32)c2ccccc21 [FLUORESCEIN] | Not Active
Cn1cnc([N+](=O)[O-])c1Sc1ncnc2nc[nH]c12 [AZATHIOPRINE] | Not Active
CNCCC=C1c2ccccc2CCc2ccccc21 [NORTRIPTYLINE] | Not Active
C=C(C)[C@@H]1[C@H]2OC(=O)[C@@H]1[C@]1(O)C[C@H]3O[C@]34C(=O)O[C@H]2[C@]14C [PICROTOXININ] | Not Active
CC1COc2c(N3CCN(C)CC3)c(F)cc3c(=O)c(C(=O)O)cn1c23 (stereo not drawn) [OFLOXACIN] | Not Active

These molecules were tested against T4, Cytochrome P450 1A2 (Homo sapiens, UniProt P05177) (assay: not given). Conditions: bti-tn-5b1-4.
T4 sequence (P05177 whole entry): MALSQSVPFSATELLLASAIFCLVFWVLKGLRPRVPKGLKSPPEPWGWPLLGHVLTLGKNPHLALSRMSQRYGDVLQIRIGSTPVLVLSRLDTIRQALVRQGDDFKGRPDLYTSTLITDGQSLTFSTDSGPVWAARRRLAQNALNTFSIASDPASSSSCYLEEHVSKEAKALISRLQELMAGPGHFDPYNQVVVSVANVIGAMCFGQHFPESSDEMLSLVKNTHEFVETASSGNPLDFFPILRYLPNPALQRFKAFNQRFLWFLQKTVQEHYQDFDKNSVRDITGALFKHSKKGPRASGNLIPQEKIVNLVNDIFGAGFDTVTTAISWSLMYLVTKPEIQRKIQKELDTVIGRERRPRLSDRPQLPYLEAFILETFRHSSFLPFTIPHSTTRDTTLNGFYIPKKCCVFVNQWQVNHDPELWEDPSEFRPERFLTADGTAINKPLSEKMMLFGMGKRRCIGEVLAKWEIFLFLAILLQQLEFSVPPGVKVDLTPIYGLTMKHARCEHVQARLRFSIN

Compound | IC50 | Ki
Nc1nc(=O)[nH]cc1F [FLUCYTOSINE] | Not Active | Not Active
O=C1OC2(c3ccc(O)cc3Oc3cc(O)ccc32)c2ccccc21 [FLUORESCEIN] | Not Active | Not Active
Cn1cnc([N+](=O)[O-])c1Sc1ncnc2nc[nH]c12 [AZATHIOPRINE] | Not Active | Not Active
CNCCC=C1c2ccccc2CCc2ccccc21 [NORTRIPTYLINE] | Not Active | Not Active
C=C(C)[C@@H]1[C@H]2OC(=O)[C@@H]1[C@]1(O)C[C@H]3O[C@]34C(=O)O[C@H]2[C@]14C [PICROTOXININ] | Not Active | Not Active
CC1COc2c(N3CCN(C)CC3)c(F)cc3c(=O)c(C(=O)O)cn1c23 (stereo not drawn) [OFLOXACIN] | Not Active | Not Active

Each molecule was assayed against Cytochrome P450 3A4 (Homo sapiens, UniProt P08684) (assay: not given). Conditions: bti-tn-5b1-4.
Cytochrome P450 3A4, sequence (P08684 whole entry): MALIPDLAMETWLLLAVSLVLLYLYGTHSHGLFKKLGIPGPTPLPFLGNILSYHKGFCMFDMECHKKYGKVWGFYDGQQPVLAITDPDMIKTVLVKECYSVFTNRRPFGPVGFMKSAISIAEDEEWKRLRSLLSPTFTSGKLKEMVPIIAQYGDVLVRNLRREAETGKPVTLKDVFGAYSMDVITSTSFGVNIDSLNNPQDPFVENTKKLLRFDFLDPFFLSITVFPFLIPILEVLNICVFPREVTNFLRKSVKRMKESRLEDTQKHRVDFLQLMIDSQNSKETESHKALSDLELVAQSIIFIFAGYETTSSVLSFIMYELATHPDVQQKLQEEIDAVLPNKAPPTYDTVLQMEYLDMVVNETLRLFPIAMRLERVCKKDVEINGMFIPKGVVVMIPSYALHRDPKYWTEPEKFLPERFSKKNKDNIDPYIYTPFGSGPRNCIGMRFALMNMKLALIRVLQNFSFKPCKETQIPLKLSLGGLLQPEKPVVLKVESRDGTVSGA

Compound | IC50 | Ki
Nc1nc(=O)[nH]cc1F [FLUCYTOSINE] | Not Active | Not Active
O=C1OC2(c3ccc(O)cc3Oc3cc(O)ccc32)c2ccccc21 [FLUORESCEIN] | Not Active | Not Active
Cn1cnc([N+](=O)[O-])c1Sc1ncnc2nc[nH]c12 [AZATHIOPRINE] | Not Active | Not Active
CNCCC=C1c2ccccc2CCc2ccccc21 [NORTRIPTYLINE] | Not Active | Not Active
C=C(C)[C@@H]1[C@H]2OC(=O)[C@@H]1[C@]1(O)C[C@H]3O[C@]34C(=O)O[C@H]2[C@]14C [PICROTOXININ] | Not Active | Not Active

Reference: ChEMBL document CHEMBL1909046, “DrugMatrix in vitro pharmacology data”
